Test results from patent US8772509B2, “Indole compounds as positive allosteric modulators of the muscarinic receptor” (Vanderbilt University, priority 2010, dated 2014).

Molecular target: T1, mAChR M1 (UniProt P08482)
T1 sequence (P08482 1-460): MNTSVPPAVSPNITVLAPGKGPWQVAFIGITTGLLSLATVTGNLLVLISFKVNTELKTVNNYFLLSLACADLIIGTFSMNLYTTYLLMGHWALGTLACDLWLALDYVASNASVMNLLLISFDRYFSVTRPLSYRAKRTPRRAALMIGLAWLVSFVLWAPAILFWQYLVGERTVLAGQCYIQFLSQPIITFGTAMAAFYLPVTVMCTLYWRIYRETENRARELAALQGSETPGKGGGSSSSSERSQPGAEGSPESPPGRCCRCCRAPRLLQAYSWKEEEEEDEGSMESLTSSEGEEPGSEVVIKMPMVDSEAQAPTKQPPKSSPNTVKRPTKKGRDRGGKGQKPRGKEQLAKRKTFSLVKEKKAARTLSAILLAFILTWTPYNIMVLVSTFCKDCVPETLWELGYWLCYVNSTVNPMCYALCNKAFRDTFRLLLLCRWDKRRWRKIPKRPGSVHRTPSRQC
Test: mAChR M1 cell-based functional assay (calcium mobilization, Fluo-4, FDSS)
Settings: for Efficacy (% ACh maximum at 30 μM): maximal calcium flux response from curve fit or response at 30 μM compound, as % of the EC80 ACh response; for EC50: positive allosteric modulation of EC20 acetylcholine response, CHO-K1 cells expressing mAChR M1, read-out: Potency (EC50)
Procedure: Chinese hamster ovary (CHO-K1) cells stably expressing rat (r)M1 were purchased from the American Type Culture Collection and cultured according to their indicated protocol. […] To make stable rM2, hM2, rM3, hM4, and rM4 cell lines for use in calcium mobilization assays, these cells also were stably transfected with a chimeric G-protein (Gqi5) (provided by B. R. Conklin, University of California, San Francisco) using Lipofectamine 2000. rM1, hM1, rM3, hM3, rM5, and hM5 cells were grown in Ham's F-12 medium containing 10% heat-inactivated fetal bovine serum (FBS), 20 mM HEPES, and 50 μg/mL G418 sulfate. rM2-Gqi5, hM2-Gqi5, and hM4-Gqi5 cells were grown in the same medium also containing 500 μg/mL Hygromycin B. Stable rM4-Gqi5 cells were grown in DMEM containing 10% heat-inactivated FBS, 20 mM HEPES, 400 μg/mL G418 sulfate, and 500 μg/mL Hygromycin B.
For high throughput measurement of agonist-evoked increases in intracellular calcium, CHO-K1 cells stably expressing muscarinic receptors were plated in growth medium lacking G418 and hygromycin at 15,000 cells/20 μL/well in Greiner 384-well black-walled, tissue culture (TC)-treated, clear-bottom plates (VWR). Cells were incubated overnight at 37° C. and 5% CO2. […] Compound master plates were formatted in an 11 point CRC format (1:3 dilutions) in 100% DMSO with a starting concentration of 10 mM using the BRAVO liquid handler (Agilent). Test compound CRCs were then transferred to daughter plates (240 nL) using the Echo acoustic plate reformatter (Labcyte, Sunnyvale, Calif.) and then diluted into assay buffer (40 μL) to a 2× stock using a Thermo Fisher Combi (Thermo Fisher Scientific, Waltham, Mass.).
Calcium flux was measured using the Functional Drug Screening System (FDSS) 6000 (Hamamatsu Corporation, Tokyo, Japan) as an increase in the fluorescent static ratio. Compounds were applied to cells (20 μL, 2×) using the automated system of the FDSS 6000 at 4 s into the 300 s protocol and the data were collected at 1 Hz. […] Agonist activity was analyzed as a concentration-dependent increase in calcium mobilization upon compound addition. Positive allosteric modulator activity was analyzed as a concentration-dependent increase in the EC20 acetylcholine response. Antagonist activity was analyzed as a concentration-dependent decrease in the EC80 acetylcholine response. Concentration-response curves were generated using a four-parameter logistical equation in XLfit curve fitting software (IDBS, Bridgewater, N.J.) for Excel (Microsoft, Redmond, Wash.) or Prism (GraphPad Software, Inc., San Diego, Calif.).
The calcium mobilization assay was also used to determine “efficacy”. In the context of the assays carried out for the data in Table I, “efficacy” (% ACh at 30 μM) is defined as the maximal response in the calcium flux as determined by the sigmoidal curve fit of the concentration response curve, or in the absence of an acceptable curve fit, the response recorded at 30 μM test compound, stated as a percentage of the response elicited by a concentration of Ach that induces approximately 80% of a maximal (i.e. saturating) ACh response.

Efficacy (% ACh maximum at 30 μM) [%]	EC50 [µM]	SMILES
44	2.5	O=C(CS(=O)(=O)c1cn(Cc2cccc(Br)c2)c2cc(F)cc(F)c12)Nc1nc2ccccc2o1 [compound 9, N-(benzo[d]oxazol-2-yl)-2-((1-(3-bromobenzyl)-4,6-difluoro-1H-indol-3-yl)sulfonyl)acetamide]
36	3.5	O=C(CS(=O)(=O)c1cn(Cc2cccc(-c3ccnc(F)c3)c2)c2cc(F)cc(F)c12)Nc1ccccn1 [compound 20, 2-((4,6-difluoro-1-(3-(2-fluoropyridin-4-yl)benzyl)-1H-indol-3-yl)sulfonyl)-N-(pyridin-2-yl)acetamide]
57	4.6	O=C(CS(=O)(=O)c1cn(Cc2cccc(-c3cccnc3)c2)c2cc(F)cc(F)c12)Nc1ccccn1 [compound 25, 2-((4,6-difluoro-1-(3-(pyridin-3-yl)benzyl)-1H-indol-3-yl)sulfonyl)-N-(pyridin-2-yl)acetamide]
96	3.07	Cc1cc(NC(=O)CS(=O)(=O)c2cn(Cc3cc(-c4cn[nH]c4)ccc3F)c3ccccc23)no1 [compound 15, 2-((1-(2-fluoro-5-(1H-pyrazol-4-yl)benzyl)-1H-indol-3-yl)sulfonyl)-N-(5-methylisoxazol-3-yl)acetamide]
–	> 10	Cc1cc(NC(=O)CS(=O)(=O)c2cn(Cc3ccc(Cl)c(Cl)c3)c3ccccc23)no1 [compound 55, 2-{1-[(3,4-dichlorophenyl)methyl]-1H-indole-3-sulfonyl}-N-(5-methyl-1,2-oxazol-3-yl)acetamide]
–	> 10	Cc1cc(NC(=O)CS(=O)(=O)c2cn(Cc3cccc(-c4ccc(Cl)nc4)c3)c3ccccc23)no1 [compound 64, 2-(1-{[3-(6-chloropyridin-3-yl)phenyl]methyl}-1H-indole-3-sulfonyl)-N-(5-methyl-1,2-oxazol-3-yl)acetamide]
67	2.6	O=C(CS(=O)(=O)c1cn(Cc2cccc(-n3ccnn3)c2)c2cc(F)cc(F)c12)Nc1ccccn1 [compound 10, 2-((1-(3-(1H-1,2,3-triazol-1-yl)benzyl)-4,6-difluoro-1H-indol-3-yl)sulfonyl)-N-(pyridn-2-yl)acetamide]
–	> 10	Cc1cc(NC(=O)CSc2cn(Cc3cccc(Br)c3)c3ccccc23)no1 [compound 51, 2-({1-[(3-bromphenyl)methyl]-1H-indol-3-yl}sulfanyl)-N-(5-methyl-1,2-oxazol-3-yl)acetamide]
42	5.2	O=C(CS(=O)(=O)c1cn(Cc2cccc(-c3ccc(F)nc3)c2)c2cc(F)cc(F)c12)Nc1ccccn1 [compound 27, 2-((4,6-difluoro-1-(3-(6-fluoropyridin-3-yl)benzyl)-1H-indol-3-yl)sulfonyl)-N-(pyridin-2-yl)acetamide]
37	> 10	COc1ncccc1-c1cccc(Cn2cc(S(=O)(=O)CC(=O)Nc3ccccn3)c3c(F)cc(F)cc32)c1 [compound 40, 2-((4,6-difluoro-1-(3-(2-methoxypyridin-3-yl)benzyl)-1H-indol-3-yl)sulfonyl)-N-(pyridin-2-yl)acetamide]
–	> 10	Cc1cc(NC(=O)CS(=O)(=O)c2cn(Cc3cccc(-c4ccc(N5CCNCC5)nc4)c3)c3ccccc23)no1 [compound 70, N-(5-methyl-1,2-oxazol-3-yl)-2-[1-({3-[6-(piperazin-1-yl)pyridin-3-yl]phenyl}methyl)-1H-indole-3-sulfonyl]acetamide]
–	> 10	Cc1cc(NC(=O)C(Cc2ccccc2F)S(=O)(=O)c2cn(Cc3ccccc3F)c3ccccc23)no1 (stereo not drawn) [compound 66, 3-(2-fluorophenyl)-2-{1-[(2-fluorophenyl)methyl]-1H-indole-3-sulfonyl}-N-(5-methyl-1,2-oxazol-3-yl)propanamide]
–	> 10	Cc1cc(NC(=O)CS(=O)(=O)c2cn(Cc3ccc(C(F)(F)F)cc3)c3ccccc23)no1 [compound 53, N-(5-methyl-1,2-oxazol-3-yl)-2-(1-{[4-(trifluoromethyl)phenyl]methyl}-1H-indole-3-sulfonyl)acetamide]
90	2.19	Cc1cc(NC(=O)CS(=O)(=O)c2cn(Cc3cccc(-c4cn[nH]c4)c3)c3ccccc23)no1 [compound 5, 2-((1-(3-(1H-pyrazol-4-yl)benzyl)-1H-indol-3-yl)sulfonyl)-N-(5-methylisoxazol-3-yl)acetamide]
42	3.4	Cc1noc(C)c1-c1cccc(Cn2cc(S(=O)(=O)CC(=O)Nc3ccccn3)c3c(F)cc(F)cc32)c1 [compound 17, 2-((1-(3-(3,5-dimethylisoxazol-4-yl)benzyl)-4,6-difluoro-1H-indol-3-yl)sulfonyl)-N-(pyridin-2-yl)acetamide]
–	> 10	Cc1cc(NC(=O)CS(=O)(=O)c2cn(Cc3cccc(-c4ccc(N5CCOCC5)nc4)c3)c3ccccc23)no1 [compound 72, N-(5-methyl-1,2-oxazol-3-yl)-2-[1-({3-[6-(morpholin-4-yl)pyridin-3-yl]phenyl}methyl)-1H-indole-3-sulfonyl]acetamide]
50	3.4	COc1ncc(-c2cccc(Cn3cc(S(=O)(=O)CC(=O)Nc4ccccn4)c4c(F)cc(F)cc43)c2)cn1 [compound 18, 2-((4,6-difluoro-1-(3-(2-methoxypyrimidin-5-yl)benzyl)-1H-indol-3-yl)sulfonyl)-N-(pyridin-2-yl)acetamide]
–	> 10	Cc1cc(NC(=O)CS(=O)(=O)c2cn(Cc3ccccc3F)c3ccccc23)no1 [compound 43, 2-{1-[(2-fluorophenyl)methyl]-1H-indole-3-sulfonyl}-N-(5-methyl-1,2-oxazol-3-yl)acetamide]
48	> 10	O=C(CS(=O)(=O)c1cn(Cc2cccc(Br)c2)c2cc(F)cc(F)c12)Nc1cncnc1 [compound 37, 2-((1-(3-bromobenzyl)-4,6-difluoro-1H-indol-3-yl)sulfonyl)-N-(pyrimidin-5-yl)acetamide]
–	> 10	Cc1cc(NC(=O)CS(=O)(=O)c2cn(Cc3ccc(F)c(-c4cc[nH]n4)c3)c3ccccc23)no1 [compound 58, 2-(1-{[4-fluoro-3-(1H-pyrazol-3-yl)phenyl]methyl}-1H-indole-3-sulfonyl)-N-(5-methyl-1,2-oxazol-3-yl)acetamide]
45	> 10	O=C(CS(=O)(=O)c1cn(Cc2cccc(-c3cncnc3)c2)c2cc(F)cc(F)c12)Nc1ccccn1 [compound 36, 2-((4,6-difluoro-1-(3-(pyrimidin-5-yl)benzyl)-1H-indol-3-yl)sulfonyl)-N-(pyridin-2-yl)acetamide]
–	> 10	Cc1cc(NC(=O)CS(=O)(=O)c2cn(Cc3ccc(F)nc3)c3ccccc23)no1 [compound 44, 2-{1-[(6-fluoropyridin-3-yl)methyl]-1H-indole-3-sulfonyl}-N-(5-methyl-1,2-oxazol-3-yl)acetamide]
59	0.99	O=C(CS(=O)(=O)c1cn(Cc2ccccc2)c2cc(F)cc(F)c12)Nc1ccccn1 [compound 1, 2-((1-benzyl-4,6-difluoro-1H-indol-3-yl)sulfonyl)-N-(pyridin-2-yl)acetamide]
